We go through 2 compounds from US12721820B2, “Method of manufacturing peptide nanoparticles” (DuPage Medical Technology, Inc., priority 2020, dated 2026).

Data set [1] is described as follows: Dissolution and storage stability of lyophilized powder. It counts as physicochemical. The procedure: The M3mP6 HLPN thus generated achieves a high M3mP6 peptide loading reaching >80% of total nanoparticle (mol/mol) (when such percentage of peptide was incorporated into during the process) and a high peptide concentration of >10 mM in injectable suspension. As analyzed by dynamic light scattering (DLS), the vast majority (99.8-100%) of these lipid-stabilized, PEG-coated M3mP6 HLPN have a particle size ranging between 6 nm to 25 nm (in different preparations) with occasional appearance of very small populations (0-0.2%) with larger diameters (~50-500 nm) (FIGS. 5A-5F).

Data set [2] relates to tail bleeding time in mice. Kind of data set: Tail bleeding time. The format is in vivo. Conditions: same concentrations that inhibit occlusive thrombosis.
Data set [3] is described as follows: Rat 5-day infusion pharmacokinetic study. Conditions: for AUC(0-t) / Tmax / clearance: plasma; for Css: steady-state plasma concentration during continuous IV infusion; for λz: terminal elimination rate constant.
The nature of data set [4]: in vivo. Particulars: male, rat, iv.
Data set [5] deals with laser-induced cremaster arteriolar thrombosis. The data set can be described thus: Laser-induced cremaster arteriolar thrombosis model. Particulars: laser-induced mouse cremaster arterial thrombosis model; for intravascular coagulation (fibrin clot formation / fibrin deposition): site of vascular injury. It counts as in vivo, mice. An excerpt:
This example illustrates the comparative effect of M3mP6 HLPN (prepared substantially as described in Example 1) and cangrelor on intracvascular coagulation using laser-induced cremaster arteriolar thrombosis model in mice.
It was recently shown that outside-in signaling plays an important role in not only platelet thrombus formation but also intravascular coagulation under flow shear, an important aspect of thrombosis. […] Thus, we tested the effect of M3mP6 HLPN generated by vortex-mixing-lyophilization on platelet thrombus formation and intravascular coagulation in comparison with cangrelor using the laser-induced cremaster arterial thrombosis model.

Residues, ends and D or L forms follow the SMILES beside them. *: point of attachment. Myristoyl = CCCCCCCCCCCCCC(=O)*

For the compound `CCCCCCCCCCCCCC(=O)N[C@@H](Cc1ccccc1)C(=O)N[C@@H](CCC(=O)O)C(=O)N[C@@H](CCC(=O)O)C(=O)N[C@@H](CCC(=O)O)C(=O)N[C@@H](CCCNC(=N)N)C(=O)N[C@@H](CC(C)C)C(=O)O` [M3mP6, Myr-FEEERL (SEQ ID NO: 8)] (Myristoyl-FEEERL-OH; C-terminus assumed), the storage stability entry in data set [1] (lyophilized powder at room temperature (22° C.)) is “at least 2 weeks”. The “storage stability (similar DLS profile and pharmacological effect)” value in data set [1] (lyophilized powder stored at −20° C.) is given as “more than 18 months”. Also, the tail bleeding time result in data set [2] is reported as “without affecting bleeding”. This compound showed a distribution volume (Vd) in data set [3] (female, in vivo, iv) of 0.2 L/kg. Further, the AUC(0-t) in data set [3] (female, intravenous) turned out to be 17600 µg·h/mL; in data set [3] (male, intravenous), 9490 µg·h/mL. Moreover, the Tmax in data set [3] (female, intravenous) worked out at 4.8 min; in data set [3] (male, intravenous), 4.8 min. In addition, the clearance in data set [3] (female, iv, CL CLAUC, clearance estimated from AUC0-∞) was 0.7 mL/min/kg; in data set [3] (female, iv, CL CLcss, clearance estimated from Css), 0.8 mL/min/kg; in data set [3] (male, intravenous, CL CLAUC, clearance estimated from AUC0-∞), 1.4 mL/min/kg; in data set [3] (male, iv, CL CLcss, clearance estimated from Css) it was 1.3 mL/min/kg. The Css in data set [3] (female) turned out to be 131.117 µg/mL; in data set [3] (male), 77.621 µg/mL. In addition, in data set [3] (female, terminal elimination half-life), the t1/2-λz stood at 186 min. Moreover, the λz in data set [3] (female) worked out at 0.223 h⁻¹; in data set [3] (male) it was 0.177 h⁻¹. In data set [3] (male, distribution volume), this compound came in with a Vλz of 0.46 L/kg. The half-life in data set [4] is 234 min.

With `CSCCNc1nc(SCCC(F)(F)F)nc2c1ncn2[C@@H]1O[C@H](COP(=O)(O)OP(=O)(O)C(Cl)(Cl)P(=O)(O)O)[C@@H](O)[C@H]1O` [cangrelor], the platelet thrombus formation result in data set [5] is on record as “similarly potent effects”; in data set [5] (listed as Cangrelor), “similarly inhibited”. Further, the entries for the “intravascular coagulation (fibrin clot formation / fibrin deposition)” value in data set [5] and in data set [5] (listed as Cangrelor) were “moderate effect” and “only partially inhibited”, respectively.

By Vd is commonly meant a proportionality between amount in the body and measured concentration, not a real space. High values mean wide distribution into tissue, low ones little distribution into tissue. In general, AUC(0-t) refers to the area under the concentration-time curve up to a stated or last time point. Usually Tmax stands for the time from dosing to the highest level. Broadly, the clearance is a measure of how efficiently the substance is removed, as volume per time. The term half-life denotes the time needed for the level to fall by half in the phase considered. High values mean slow decline, low ones rapid decline.
